In patent publication US8217004B2, “Sequestering agent for micronutrient fertilisers” (priority 2005, dated 2012):

Key:
Canola [1] = assay: Pot experiment: availability of Zn fertiliser to Canola grown on alkaline and calcareous soils; assay type: in vivo, Canola (variety Pinnacle); settings: calcareous grey sandy loam (Streaky Bay) and Sodosol (Birchip); 21 days; FIG. 2; LSD=1.72; p<0.01
Description: Topsoils from each location were collected, oven dried and passed through a 2 mm sieve. The experimental fertilisers were mixed with 20g of soil, which was banded between 100 g of the unfertilised bulk soil. Total nutrient application equated to (μg/g soil) P 60, N 27, applied as TGMAP, and Zn 0.2 as ZnSO4.7H2O. Chelate rates were based on the concentrations required to complex between 75 and 100% of the Zn in the fertiliser solution. Rates varied depending on the equilibrium constant (logK) and the stoichiometry of the Zn-ligand complexes. […] Each treatment was replicated four times.
Two pre-germinated Canola seeds (variety Pinnacle) were transferred to each pot. The pots were watered to θg=0.5 with deionised water every second day and evaporation was reduced with polyethylene beads, which were spread over the exposed surface of each pot. The plants were grown for 21 days in a controlled environment growth chamber (10 h dark at 15° C., 14 h light at 20° C., 41% humidity) before the shoots were harvested, rinsed, dried, weighed and then digested in concentrated HNO3. Plant digests were analysed for ^65Zn by gamma spectroscopy and for total nutrient contents by ICP-OES.
Data for shoot dry weight, shoot nutrient concentrations and Zn fertiliser uptake were analysed by analysis of variance (ANOVA). Significance between means was determined using the Least Significant Difference (LSD) test.

[2] = published value; cited from earlier work
Canola [3] = assay: Canola dry matter response to foliar applied Zn (shoot immersion); assay type: in vivo, Canola (var. Pinnacle); settings: Zn deficient Canola, shoots immersed five seconds; compared with ZnSO4 or ZnEDTA; FIG. 3; P<0.05, LSD=0.1496
Description: Dry matter response in Zn deficient Canola was used as a measure of fertiliser effectiveness because it considers metabolically available Zn, rather than total Zn uptake. Pre-germinated Canola seedlings (var. […] After 13 days, whole shoots were immersed in ZnSO4.7H2O solutions for five seconds. […] Rhamnolipid rates were high enough to ensure a Zn Kow of at least 50 at the highest Zn application rate. […] Wetting agent was not required in the Rhamnolipid solutions because of the surfactant properties of the ligand. […] After the three-week growth period, plant roots and shoots were harvested, dried and weighed for dry matter production.

[4] = n-Octanol/water partition coefficients (Kow) of metal-ligand complexes, shake-flask method; assay type: physicochemical
Description: n-Octanol/water partition coefficients (Kow) are commonly used to determine whether molecules can partition into hydrophobic (lipid-soluble) phases. Polar molecules, ie metals, generally partition in the water phase. Neutral, lipid soluble organic molecules may partition within the octanol phase according to their Kow. Most conventional chelate complexes (ie ZnEDTA^2−) partition within the water phase. […] The aim of this experiment was to determine whether Zn-Rhamnolipid complexes would partition within the n-octanol phase. Kow's were measured with varying Rhamnolipid concentrations. […] Final Rhamnolipid concentrations were (mM) 0, 0.1, 0.24, 0.5, 1, 1.5, 2, 2.5. Two millilitres of n-Octanol was added to the solutions before they were shaken end-over-end for 24 hours. Following shaking, 3 ml of solution was removed from the water phase and digested in concentrated HNO3 before analysis for total Zn by ICP-OES. The partition coefficient was calculated according to the equation above.

Molecule	total Zn uptake by canola (roots absorbed and translocated into shoots) (Canola [1])	logK of Zn complex [2]	plant foliar dry matter response to applied Zn (Canola [3])	partitioning of metal-ligand complex into the n-octanol phase (Kow) ([4]; Zn, Mn, Cu, shake-flask, 24 hours, FIG. 1)	Zn Kow ([4]; at the Rhamnolipid rates used for foliar test, at the highest Zn application rate)
O=C(O)CN(CCN(CC(=O)O)CC(=O)O)CC(=O)O [EDTA, reference compound]	ineffective				
O=C([O-])CN(CCN(CC(=O)O)CC(=O)O)CC(=O)[O-].[Zn+2] [ZnEDTA]		16.5			
rhamnolipid	significantly increased total Zn uptake		significantly increased dry matter response to Zn	dramatically facilitates the transfer of the metal ion from the aqueous phase into the octanol phase	at least 50
